This note sets out measurements from BindingDB's records for doi:10.1021/jm970524i (Dupont Pharmaceuticals, 1998).

For orientation: Ki means a measure of affinity in units of concentration, obtained from inhibition or displacement.

For this test, the target named is T1, Dimer of Gag-Pol polyprotein [489-587] (Human immunodeficiency virus 1, UniProt P04585).
T1 construct: 489-587
The test is described as follows: Protease Inhibition Assay. Here is the method:
Inhibition of HIV protease was measured by assay of the cleavage of a fluorescent peptide substrate. The fluorescent product (2-aminobenzoyl-Ala-Thr-His-Gln-Val-Tyr) was separated from the fluorescent substrate by anion-exchange HPLC on a Mono-Q anion-exchange column (Pharmacia), and fluorescence was monitored at an excitation wavelength of 330 nm and an emission wavelength of 430 nm. Ki values for inhibitor binding were estimated at fixed concentrations of substrate and inhibitor from fractional activity measurements by use of the modified Michaelis-Menten equation.

Regarding `O=C1N(Cc2cccc(CO)c2)[C@H](Cc2ccccc2)[C@H](O)[C@@H](O)[C@@H](Cc2ccccc2)N1Cc1cccc(CO)c1` [(4R,5S,6S,7R)-4,7-dibenzyl-5,6-dihydroxy-1,3-bis({[3-(hydroxymethyl)phenyl]methyl})-1,3-diazepan-2-one], the Ki is 0.14 nM. For `NC(=O)NC1=N[C@H](Cc2ccccc2)[C@H](O)[C@@H](O)[C@@H](Cc2ccccc2)N1` [[4R-(4a,5a,6B,7B)]-[Hexahydro-5,6-dihydroxy-4,7-bis(phenylmethyl)-2H-1,3-diazepin-2-ylidene]urea], the Ki (pH 5.5, 37 °C) is > 12500 nM.

On to `O=C1N(Cc2cccc([N+](=O)[O-])c2)[C@H](Cc2ccccc2)[C@H](O)[C@@H](O)[C@@H](Cc2ccccc2)N1Cc1cccc([N+](=O)[O-])c1`, for which the Ki was 2.8 nM. For `O=C1N(Cc2ccc(O)cc2)[C@H](Cc2ccccc2)[C@H](O)[C@@H](O)[C@@H](Cc2ccccc2)N1Cc1ccc(O)cc1`, the Ki is 0.12 nM. As for `O=C1N(Cc2cccc(O)c2)[C@H](Cc2ccccc2)[C@H](O)[C@@H](O)[C@@H](Cc2ccccc2)N1Cc1cccc(O)c1`, the inhibitory constant (Ki) is 0.12 nM.
